Test results published in ChEMBL document CHEMBL2331252, “Facile one-pot synthesis of novel dispirooxindole-pyrrolidine derivatives and their antimicrobial and anticancer activity against A549 human lung adenocarcinoma cancer cell line” (Bioorg Med Chem Lett, 2013).
In brackets after ≈: the same amount, converted by molar mass. Activity calls are given as the source filed them. The rule behind the calls is not given here.

What was measured:
Format in all cases: functional
Klebsiella pneumoniae [1] = assay: Antibacterial activity against Klebsiella pneumoniae MTCC 109 at 1 mg/disc after 24 hrs by disc diffusion method
Salmonella typhimurium [2] = assay: Antibacterial activity against Salmonella typhimurium MTCC 1251 after 24 hrs
Proteus vulgaris [3] = assay: Antibacterial activity against Proteus vulgaris MTCC 1771 after 24 hrs
A549 [4] = assay: Cytotoxicity against human A549 cells assessed as cell death at 100 ug/ml by MTT assay
Staphylococcus aureus [5] = assay: Antibacterial activity against Staphylococcus aureus MTCC 96 after 24 hrs; settings: MTCC 96, 24 h
Candida albicans [6] = assay: Antifungal activity against Candida albicans MTCC 227 after 48 to 72 hrs
Klebsiella aerogenes [7] = assay: Antibacterial activity against Enterobacter aerogenes MTCC 111 after 24 hrs
Shigella flexneri [8] = assay: Antibacterial activity against Shigella flexneri MTCC 1457 after 24 hrs; settings: MTCC 1457, 24 h
A549 [9] = assay: Cytotoxicity against human A549 cells assessed as cell death at 50 ug/ml by MTT assay
A549 [10] = assay: Cytotoxicity against human A549 cells assessed as cell death at 200 ug/ml by MTT assay
[11] = Antifungal activity against Malassezia pachydermatis at 1 mg/disc after 48 hrs by disc diffusion method
Candida albicans [12] = assay: Antifungal activity against Candida albicans MTCC 227 at 1 mg/disc after 48 hrs by disc diffusion method
Klebsiella aerogenes [13] = assay: Antibacterial activity against Enterobacter aerogenes MTCC 111 at 1 mg/disc after 24 hrs by disc diffusion method
Staphylococcus aureus [14] = assay: Antibacterial activity against Staphylococcus aureus MTCC 96 at 1 mg/disc after 24 hrs by disc diffusion method
Shigella flexneri [15] = assay: Antibacterial activity against Shigella flexneri MTCC 1457 at 1 mg/disc after 24 hrs by disc diffusion method
Salmonella typhimurium [16] = assay: Antibacterial activity against Salmonella typhimurium MTCC 1251 at 1 mg/disc after 24 hrs by disc diffusion method; settings: for inhibition: Salmonella enterica subsp. enterica serovar Typhimurium
Staphylococcus aureus [17] = assay: Antibacterial activity against methicillin-resistant Staphylococcus aureus at 1 mg/disc after 24 hrs by disc diffusion method
Klebsiella pneumoniae [18] = assay: Antibacterial activity against Klebsiella pneumoniae MTCC 109 after 24 hrs; settings: MTCC 109, 24 h
Micrococcus luteus [19] = assay: Antibacterial activity against Micrococcus luteus MTCC 106 at 1 mg/disc after 24 hrs by disc diffusion method
Staphylococcus aureus [20] = assay: Antibacterial activity against methicillin-resistant Staphylococcus aureus after 24 hrs
Proteus vulgaris [21] = assay: Antibacterial activity against Proteus vulgaris MTCC 1771 at 1 mg/disc after 24 hrs by disc diffusion method
Micrococcus luteus [22] = assay: Antibacterial activity against Micrococcus luteus MTCC 106 after 24 hrs; settings: MTCC 106, 24 h
[23] = Salmonella enterica subsp. enterica serovar Typhimurium
[24] = Salmonella enterica, MTCC 1251, 24 h

Row | Structure (SMILES) | inhibition zone (IZ) (Klebsiella pneumoniae [1]) | Activity (A549 [4]) | MIC (Staphylococcus aureus [5]) | MIC (Candida albicans [6]) | MIC (Klebsiella aerogenes [7]; MTCC 111, 24 h) | MIC (Shigella flexneri [8]) | Activity (A549 [9]) | Activity (A549 [10]) | inhibition [11] | inhibition zone (IZ) (Candida albicans [12]) | inhibition zone (IZ) (Klebsiella aerogenes [13]) | inhibition zone (IZ) (Staphylococcus aureus [14]) | inhibition zone (IZ) (Shigella flexneri [15]) | inhibition zone (IZ) (Staphylococcus aureus [17]) | MIC (Klebsiella pneumoniae [18]) | inhibition zone (IZ) (Micrococcus luteus [19]) | MIC (Staphylococcus aureus [20]) | MIC (Micrococcus luteus [22]) | MIC (Proteus vulgaris [3]; MTCC 1771, 24 h) | inhibition zone (IZ) (Proteus vulgaris [21]) | further results
1 | CN1C[C@](C#N)(C(=O)c2c[nH]c3ccccc23)[C@]2(C(=O)Nc3ccccc32)[C@@]12C(=O)Nc1ccc(F)cc12 | 8 mm | 10.82% | 125 µg/mL (≈ 247 µM) | 125 µg/mL (≈ 247 µM) | 500 µg/mL (≈ 989 µM) | 500 µg/mL (≈ 989 µM) | 3.6% | 16.79% | inactive | 11 mm | 9 mm | 12 mm | 9 mm | 10 mm | 500 µg/mL (≈ 989 µM) | 9 mm | 500 µg/mL (≈ 989 µM) | 500 µg/mL (≈ 989 µM) |  |  | MIC (Salmonella typhimurium [2]; [23]): inactive; MIC (Proteus vulgaris [3]): inactive; inhibition (Salmonella typhimurium [16]): inactive; inhibition (Proteus vulgaris [21]): inactive
2 | CN1C[C@](C#N)(C(=O)c2c[nH]c3ccccc23)[C@]2(C(=O)Nc3ccccc32)[C@@]12C(=O)Nc1ccc(I)cc12 | 13 mm | 9.66% | 500 µg/mL (≈ 815 µM) | 500 µg/mL (≈ 815 µM) |  | 1000 µg/mL (≈ 1630 µM) | 4.19% | 17.58% | inactive | 10 mm | 9 mm | 10 mm | 8 mm | 8 mm | 250 µg/mL (≈ 408 µM) | 8 mm | 1000 µg/mL (≈ 1630 µM) | 1000 µg/mL (≈ 1630 µM) | 500 µg/mL (≈ 815 µM) | 9 mm | MIC (Salmonella typhimurium [2]; [24]): 500 µg/mL (≈ 815 µM); MIC (Klebsiella aerogenes [7]): inactive; inhibition zone (IZ) (Salmonella typhimurium [16]): 11 mm
3 | CN1C(=O)[C@@]2(c3cc(Br)ccc31)N(C)C[C@](C#N)(C(=O)c1c[nH]c3ccccc13)[C@]21C(=O)Nc2ccccc21 | 8 mm | 2.07% | 500 µg/mL (≈ 861 µM) | inactive | 125 µg/mL (≈ 215 µM) | 125 µg/mL (≈ 215 µM) | 0.87% | 10.92% | inactive |  | 10 mm | 9 mm | 11 mm | 8 mm | 500 µg/mL (≈ 861 µM) | 11 mm | 500 µg/mL (≈ 861 µM) | 125 µg/mL (≈ 215 µM) | 500 µg/mL (≈ 861 µM) | 9 mm | MIC (Salmonella typhimurium [2]; [24]): 500 µg/mL (≈ 861 µM); inhibition (Candida albicans [12]): inactive; inhibition zone (IZ) (Salmonella typhimurium [16]): 9 mm
4 | CN1C[C@](C#N)(C(=O)c2c[nH]c3ccccc23)[C@]2(C(=O)Nc3ccccc32)C12C(=O)c1cccc3cccc2c13 (stereo partly drawn) | 8 mm | 21.61% | 125 µg/mL (≈ 239 µM) | 500 µg/mL (≈ 957 µM) | 500 µg/mL (≈ 957 µM) | 500 µg/mL (≈ 957 µM) | 7.55% | 29.72% | inactive | 9 mm | 10 mm | 11 mm | 9 mm |  | 500 µg/mL (≈ 957 µM) | 9 mm | inactive | 500 µg/mL (≈ 957 µM) | 500 µg/mL (≈ 957 µM) | 8 mm | MIC (Salmonella typhimurium [2]; [23]): inactive; inhibition (Salmonella typhimurium [16]): inactive; inhibition (Staphylococcus aureus [17]): inactive
